Data as given in US7714006B1, “Methods of modifying the bioavailability of metaxalone” (King Pharmaceuticals Research & Development, Inc., priority 2001, dated 2010).

Key:
[1] = Effects of age and gender on PK parameters, study 101 (1×400 mg with and without food); format: in vivo, human
Experimental: (§1) In addition, the robustness of the results are assessed by applying similar analysis approaches to the data from two other studies: • Study AN151607-101 (hereafter referred to as the 101 study): a two-period, randomized crossover trial with treatment conditions 1×400 mg with food and 1×400 mg without food; • Study AN151607-106 (hereafter referred to as the 106 study): a single dose trial with treatment condition 2×400 mg without food.
Study 101 was a two-period randomized crossover trial conducted in 42 healthy volunteers. The mean age was 23.8 years, with a range from 18 to 42 years. The treatment conditions were 1×400 mg with food and 1×400 mg without food. Because the treatments were not the same as in the 103 and 105 studies (1×400 mg in study 101, as opposed to 2×400 mg in studies 103 and 105), and additionally because the blood sample collection schedules were not the same, it is not possible to combine the 101 data with the data from studies 103 and 105. However, it is possible to independently investigate the effects of age on fed and fasted values of the PK parameters in order to determine if the effects are of similar magnitude and direction to those found in the 103 and 105 studies.
First, Pearson and Spearman correlation coefficients between age and each of the three PK parameters were computed. The correlation coefficients and two-sided p-values from the test of the null hypothesis of no association are shown below in TABLE VIa:
(§2) Linear regression models using the natural logarithm of each of the three PK parameters as the dependent variable and age as the independent variable were fitted in order to estimate the magnitude of the associations with age.
Study 101 was a two-period randomized crossover trial conducted in 42 healthy volunteers (31 males, 11 females). The mean age was 23.8 years, with a range from 18 to 42 years. The treatment conditions were 1×400 mg with food and 1×400 mg without food. Because the treatments were not the same as in the 103 and 105 studies, and additionally because the blood sample collection schedules were not the same, it is not possible to combine the 101 data with the data from studies 103 and 105. However, it is reasonable to independently investigate the effects of age and gender on the fed and fasted values of the PK parameters in order to determine if the effects are of similar magnitude and direction to those found in the 103 and 105 studies.
The same regression modeling strategy as was described in Sections 3.2 and 3.3 was also applied. The initial regression models with a gender effect and separate age effects for males and females yielded positive estimates of the age effect for males and negative estimates for females. This was consistent across all three PK parameters. However, none of the age effects was statistically significant and, in addition, there was no significant evidence of interaction between age and gender (all p-values exceeded 0.10). […]

[2] = Effects of age and gender on fasted PK parameters, study 106 (2×400 mg without food); format: in vivo, human
Experimental: as §1
(§3) Study 106 was a single dose trial conducted in 48 healthy volunteers. The mean age was 24.7 years, with a range from 18 to 50 years. The single treatment condition in this study was 2×400 mg without food. Blood samples for PK analyses were obtained at the same time points as in the 103 and 105 studies.
First, Pearson and Spearman correlation coefficients between age and each of the three PK parameters were computed. The correlation coefficients and two-sided p-values from the test of the null hypothesis of no association are shown below in TABLE VIIIa:
as §2
as §3, with “volunteers (24 males, 24 females).” for “volunteers.”
The same regression modeling strategy as was described in Sections 3.2 and 3.3 was also used. In the initial regression models with a gender effect and separate age effects for males and females, the parameter estimates for all three variables were negative for males and positive for females. In addition, the age effect in females was statistically significant for ln(AUC(last)) and ln(AUC(inf)). However, the tests of equality between the age effects for males and females (i.e., the age-by-gender interaction) were not statistically significant for any of the three variables; the p-values ranged from 0.08 to 0.11.

**Q.** With Cc1cc(C)cc(OCC2CNC(=O)O2)c1 (centres unmarked) [metaxalone, 5-[(3,5-dimethylphenoxy)methyl]-2 oxazolidinone] as the compound, how does the “Proportion of variability explained by age, ln(AUC(inf))” value ([1]; fasted) read?
**A.** 7.7%

**Q.** What about the “Proportion of variability explained by age, ln(Cmax)” value ([1]; fasted) of the same compound?
**A.** 13.4%

**Q.** What about the “Pearson correlation, age vs ln(AUC(inf))” value ([1]; fasted, females n=11) of the same compound?
**A.** 0.208

**Q.** What about the “Pearson correlation, age vs ln(AUC(last))” value ([1]; fasted, females n=11) of the same compound?
**A.** 0.284

**Q.** What about the “Pearson correlation, age vs ln(Cmax)” value ([1]; fasted, females n=11) of the same compound?
**A.** 0.309

**Q.** What about the “Spearman correlation, age vs ln(AUC(inf))” value ([1]; fasted, females n=11) of the same compound?
**A.** 0.235

**Q.** What about the “Spearman correlation, age vs ln(AUC(last))” value ([1]; fasted, females n=11) of the same compound?
**A.** 0.406

**Q.** What about the “Spearman correlation, age vs ln(Cmax)” value ([1]; fasted, females n=11) of the same compound?
**A.** 0.525

**Q.** What about the “Pearson correlation, age vs ln(AUC(inf))” value ([1]; fasted, males n=31) of the same compound?
**A.** 0.287

**Q.** What about the “Pearson correlation, age vs ln(AUC(last))” value ([1]; fasted, males n=31) of the same compound?
**A.** 0.279

**Q.** What about the “Pearson correlation, age vs ln(Cmax)” value ([1]; fasted, males n=31) of the same compound?
**A.** 0.384

**Q.** And the “Spearman correlation, age vs ln(AUC(inf))” value ([1]; fasted, males n=31)?
**A.** 0.115

**Q.** And the “Spearman correlation, age vs ln(AUC(last))” value ([1]; fasted, males n=31)?
**A.** 0.127

**Q.** And the “Spearman correlation, age vs ln(Cmax)” value ([1]; fasted, males n=31)?
**A.** 0.206

**Q.** What about the “Pearson correlation, age vs ln(AUC(inf))” value ([1]; fasted, n=42) of the same compound?
**A.** 0.277

**Q.** And the “Pearson correlation, age vs ln(AUC(last))” value ([1]; fasted, n=42)?
**A.** 0.289

**Q.** And the “Pearson correlation, age vs ln(Cmax)” value ([1]; fasted, n=42)?
**A.** 0.366

**Q.** And the “Spearman correlation, age vs ln(AUC(inf))” value ([1]; fasted, n=42)?
**A.** 0.146

**Q.** What about the “Spearman correlation, age vs ln(AUC(last))” value ([1]; fasted, n=42) of the same compound?
**A.** 0.161

**Q.** And the “Spearman correlation, age vs ln(Cmax)” value ([1]; fasted, n=42)?
**A.** 0.235

**Q.** And the “Proportion of variability explained by age, ln(AUC(inf))” value ([1]; fed)?
**A.** 3%

**Q.** What about the “Proportion of variability explained by age, ln(AUC(last))” value ([1]; fed) of the same compound?
**A.** 3%

**Q.** What about the “Proportion of variability explained by age, ln(Cmax)” value ([1]; fed) of the same compound?
**A.** 1%

**Q.** And the “Pearson correlation, age vs ln(AUC(inf))” value ([1]; fed, females n=11)?
**A.** −0.165

**Q.** And the “Pearson correlation, age vs ln(AUC(last))” value ([1]; fed, females n=11)?
**A.** −0.188

**Q.** And the “Pearson correlation, age vs ln(Cmax)” value ([1]; fed, females n=11)?
**A.** −0.396

**Q.** And the “Spearman correlation, age vs ln(AUC(inf))” value ([1]; fed, females n=11)?
**A.** −0.244

**Q.** And the “Spearman correlation, age vs ln(AUC(last))” value ([1]; fed, females n=11)?
**A.** −0.295

**Q.** And the “Spearman correlation, age vs ln(Cmax)” value ([1]; fed, females n=11)?
**A.** −0.645

**Q.** What about the “Pearson correlation, age vs ln(AUC(inf))” value ([1]; fed, males n=31) of the same compound?
**A.** 0.268

**Q.** What about the “Pearson correlation, age vs ln(AUC(last))” value ([1]; fed, males n=31) of the same compound?
**A.** 0.271

**Q.** What about the “Pearson correlation, age vs ln(Cmax)” value ([1]; fed, males n=31) of the same compound?
**A.** 0.234

**Q.** What about the “Spearman correlation, age vs ln(AUC(inf))” value ([1]; fed, males n=31) of the same compound?
**A.** 0.088

**Q.** What about the “Spearman correlation, age vs ln(AUC(last))” value ([1]; fed, males n=31) of the same compound?
**A.** 0.094

**Q.** What about the “Spearman correlation, age vs ln(Cmax)” value ([1]; fed, males n=31) of the same compound?
**A.** 0.169

**Q.** What about the “Pearson correlation, age vs ln(AUC(inf))” value ([1]; fed, n=42) of the same compound?
**A.** 0.186

**Q.** What about the “Pearson correlation, age vs ln(AUC(last))” value ([1]; fed, n=42) of the same compound?
**A.** 0.179

**Q.** What about the “Pearson correlation, age vs ln(Cmax)” value ([1]; fed, n=42) of the same compound?
**A.** 0.102

**Q.** What about the “Spearman correlation, age vs ln(AUC(inf))” value ([1]; fed, n=42) of the same compound?
**A.** 0.029

**Q.** And the “Spearman correlation, age vs ln(AUC(last))” value ([1]; fed, n=42)?
**A.** 0.022

**Q.** And the “Spearman correlation, age vs ln(Cmax)” value ([1]; fed, n=42)?
**A.** −0.009

**Q.** And the “Pearson correlation, age vs ln(AUC(inf))” value ([2]; females n=24)?
**A.** 0.416

**Q.** What about the “Pearson correlation, age vs ln(AUC(last))” value ([2]; females n=24) of the same compound?
**A.** 0.431

**Q.** And the “Pearson correlation, age vs ln(Cmax)” value ([2]; females n=24)?
**A.** 0.336

**Q.** And the “Spearman correlation, age vs ln(AUC(inf))” value ([2]; females n=24)?
**A.** 0.368

**Q.** What about the “Spearman correlation, age vs ln(AUC(last))” value ([2]; females n=24) of the same compound?
**A.** 0.428

**Q.** And the “Spearman correlation, age vs ln(Cmax)” value ([2]; females n=24)?
**A.** 0.279

**Q.** And the “Pearson correlation, age vs ln(AUC(inf))” value ([2]; males n=24)?
**A.** −0.184

**Q.** What about the “Pearson correlation, age vs ln(AUC(last))” value ([2]; males n=24) of the same compound?
**A.** −0.178

**Q.** What about the “Pearson correlation, age vs ln(Cmax)” value ([2]; males n=24) of the same compound?
**A.** −0.202

**Q.** What about the “Spearman correlation, age vs ln(AUC(inf))” value ([2]; males n=24) of the same compound?
**A.** −0.368

**Q.** What about the “Spearman correlation, age vs ln(AUC(last))” value ([2]; males n=24) of the same compound?
**A.** −0.365

**Q.** What about the “Spearman correlation, age vs ln(Cmax)” value ([2]; males n=24) of the same compound?
**A.** −0.316

**Q.** And the “Pearson correlation, age vs ln(AUC(inf))” value ([2]; n=48)?
**A.** 0.348

**Q.** What about the “Pearson correlation, age vs ln(AUC(last))” value ([2]; n=48) of the same compound?
**A.** 0.349

**Q.** And the “Pearson correlation, age vs ln(Cmax)” value ([2]; n=48)?
**A.** 0.260

**Q.** What about the “Spearman correlation, age vs ln(AUC(inf))” value ([2]; n=48) of the same compound?
**A.** 0.173

**Q.** What about the “Spearman correlation, age vs ln(AUC(last))” value ([2]; n=48) of the same compound?
**A.** 0.189

**Q.** What about the “Spearman correlation, age vs ln(Cmax)” value ([2]; n=48) of the same compound?
**A.** 0.125
